Earlier results on 1 compound are cited in patent publication US20090088367A1, “Treatment of Insulin Resistance/Metabolic Syndrome to Alleviate the Risks of Dementia” (Burnham Institute For Medical Research, priority 2004, published 2009).

SMILES strings stand for the structures.

The subject of data set [1] is neurodegeneration induced by beta-amyloid(1-40). As to conditions: Miguel-Hidalgo et al., Brain Res 2002.
For data set [2], the system named is APP/PS1 double mutant mice. As to conditions: transgenic mouse with mutant amyloid precursor protein and presenilin I; Tanila et al., J Neurochem 2003.
Data set [3] concerns tau hyperphosphorylation. As to conditions: in culture; okadaic acid-induced changes; Iqbal et al., J Neurochem 2003.

With `CC12CC3CC(C)(C1)CC(N)(C3)C2` [memantine, 1-amino-3,5-dimethyladamantine], the “protection from intrahippocampal injection of Aβ” value in data set [1] is on record as “offer protection”. In data set [2], the “performance on behavioral tests (T-maze and Morris water maze)” value was “improved performance”. The tau hyperphosphorylation entry in data set [3] is “reduce tau hyperphosphorylation”.
